# Assay results reported in PMC8699473, “An Easily Expandable Multi-Drug LC-MS Assay for the Simultaneous Quantification of 57 Oral Antitumor Drugs in Human Plasma” (Cancers, 2021).
# Conditions: human
smiles,measurement,setting,value
Cc1ccc(C(=O)Nc2ccc(CN3CCN(C)CC3)c(C(F)(F)F)c2)cc1C#Cc1cnc2cccnn12 [Ponatinib],"Long-term stability, 1 month, -20°C Accuracy [%]",both,96.0%
same,"Long-term stability, 1 month, -80°C Accuracy [%]",both,92.6%
same,"Long-term stability, 2 month, -20°C Accuracy [%]",both,87.7%
same,"Long-term stability, 2 month, -80°C Accuracy [%]",both,99.1%
same,"Long-term stability, 3 month, -20°C Accuracy [%]",both,91.3%
same,"Long-term stability, 3 month, -80°C Accuracy [%]",both,96.8%
same,"Long-term stability, 6 weeks, 4°C, without daylight Accuracy [%]",,83.5%
